Tests used:
PTX-sensitive G proteins = test: mastoparan 7-stimulated [35S]GTPγS binding to isolated cell membranes from normotensives and hypertensives; format: biochemical, human
Method: (§1) A detailed characterization was carried out of the activation of G proteins from cells of normotensive subjects and hypertensive patients. For this purpose, the stimulated incorporation of radiolabeled [^35 S] GTPγS was quantified by the method described by Wieland et al. (Wieland, T., Liedel, K., Xaldenberg-Stasch, S., Meyer zu Heringdorf, D., Schmidt, M., and Jakobs, K. E. Analysis of receptor-G protein interactions in permeabilized cells. Naunyn-Schmiedeberg's Arch.Pharmacol. 351:329-336,1995). G Proteins were activated initially by stimulating cells which had been permeabilized with digitonin using the peptide mastoparan 7. This peptide simulates the configuration of an activated G protein-coupled receptor so that it can be used to induce direct G protein activation independent of receptors (Ross, E. M. and Higashijima, T. Regulation of G protein activation by mastoparan and other cationic peptides. Methods Enzymol. 237:27-38, 1994). The binding of GTPγS induced by MAS-7 is completely PTX-sensitive so that it can be used to quantify the activation of heterotrimeric G proteins of the Gi type. […] MAS-7 induces strong [^35 S] GTPγS binding on HT cells with an EC50 of about 5 μm (FIG. 2). Maximum binding is reached at about 25 to 50 μm MAS-7. In contrast to this, the concentration required for the same [^35 S] GTPγS binding to NT cells are [sic] 10 times higher (FIG. 2).
GTPγS to isolated cell membranes from normotensives and hypertensives. It is evident that the maximum stimulated binding of [^35 S] GTPγS to membranes from hypertensives occurs at lower concentrations of GDP (about 0.2 μmol/l), where a concentration of 1 μmol/l GDP is required for the same effect in normotensives.
In a similar way, the maximum binding, stimulated by mastoparan 7, of [^35 S] GTPγS to membrane preparations from hypertensive cells a low concentration of free Mg^2+ (about 0.01 mmol/l), while a free Mg^2+ concentration of 0.1 mmol/l is necessary for the same maximum binding of [^35 S] GTPγS to membranes from normotensive cells (FIG. 5).

[1] = system: PTX-sensitive G proteins (heterotrimeric G proteins of the Gi type); test: mastoparan 7-stimulated [35S]GTPγS binding to digitonin-permeabilized cells from normotensives and hypertensives; format: cell-based, human
Method: as §1
GTPγS to cell lines from normotensives (NT) and hypertensives (HT).
The binding of [^35 S] GTPγS to hypertensive cells is distinctly speeded up (rate constants 0.005 s^-1 in the normotensive versus 0.01 s^-1 in the hypertensive state).

[Mg+2] [Mg^2+]
free Mg2+ concentration for maximum mastoparan 7-stimulated [35S]GTPγS binding (PTX-sensitive G proteins; membrane preparations from hypertensive cells): about 0.01 mmol/l
free Mg2+ concentration for maximum mastoparan 7-stimulated [35S]GTPγS binding (PTX-sensitive G proteins; membranes from normotensive cells): 0.1 mmol/L

mastoparan 7 [MAS-7]
EC50 ([1]; HT (hypertensive) cells, digitonin-permeabilized, read-out: EC50 of induced [35S]GTPγS binding): ~5 µM
concentration required for the same [35S]GTPγS binding to NT cells, relative to HT cells ([1]; NT (normotensive) versus HT cells): 10 times higher
rate constant of stimulated [35S]GTPγS binding ([1]; hypertensive state): 0.01 s⁻¹
rate constant of stimulated [35S]GTPγS binding ([1]; normotensive state): 0.005 s⁻¹

Nc1nc2c(ncn2[C@@H]2O[C@H](COP(=O)(O)OP(=O)(O)O)[C@@H](O)[C@H]2O)c(=O)[nH]1 [GDP]
GDP concentration at which maximum mastoparan 7-stimulated [35S]GTPγS binding occurs (PTX-sensitive G proteins; membranes from hypertensives): about 0.2 μmol/l
GDP concentration required for maximum mastoparan 7-stimulated [35S]GTPγS binding (PTX-sensitive G proteins; membranes from normotensives): 1 µmol/L
